Measured values: ChEMBL document CHEMBL4190187, “Discovery of pyrazolopyrimidine derivatives as novel inhibitors of ataxia telangiectasia and rad3 related protein (ATR)” (Bioorg Med Chem Lett, 2017)

Columns and labels:
[1] = biological target: T1, Serine/threonine-protein kinase ATR (Homo sapiens, UniProt Q13535); assay: Inhibition of human recombinant FLAG-tagged full length ATR expressed in mammalian cell line co-expressing human recombinant cMyc-tagged full length ATRIP
[2] = biological target: T1, Serine/threonine-protein kinase ATR; assay: Inhibition of human recombinant FLAG-tagged full length ATR expressed in mammalian cell line co-expressing human recombinant cMyc-tagged full length ATRIP at 1 uM using GST-cMyc-p53 as substrate after 40 mins in presence of [gamma-33P]ATP by scintillation counting method
[3] = biological target: Tyrosine-protein kinase Blk (Mus musculus) (UniProt P16277); assay: Inhibition of recombinant full-length mouse Blk at 1 uM using poly(Glu,Tyr) 4:1 as substrate after 40 mins in presence of [gamma-33P]ATP by scintillation counting method
[4] = biological target: CDK9/cyclin T1 (Homo sapiens) (UniProt O60563+P50750); assay: Inhibition of recombinant full-length human CDK9/Cyclin T1 at 1 uM using KTFCGTPEYLAPEVRREPRILSEEEQEMFRDFDYIADWC as substrate after 40 mins in presence of [gamma-33P]ATP by scintillation counting method; type: protein-complex assay
[5] = biological target: Cyclin-dependent kinase-like 1 (Homo sapiens) (UniProt Q00532); assay: Inhibition of recombinant human CDKL1 (1 to 303 residues) at 1 uM using RRRFRPASPLRGPPK as substrate after 120 mins in presence of [gamma-33P]ATP by scintillation counting method
[6] = tested on: Serine/threonine-protein kinase Chk2 (Homo sapiens), O96017 [I157T]; assay: Inhibition of recombinant human CHK2 I157T mutant (5 to end residues) at 1 uM using KKKVSRSGLYRSPSMPENLNRPR as substrate after 40 mins in presence of [gamma-33P]ATP by scintillation counting method
[7] = biological target: Casein kinase II subunit alpha (Homo sapiens) (UniProt P68400); assay: Inhibition of recombinant full-length human CK2alpha1 at 1 uM using RRRDDDSDDD as substrate after 40 mins in presence of [gamma-33P]ATP by scintillation counting method
Sequence of Casein kinase II subunit alpha (Homo sapiens) (P68400 whole entry, looked up): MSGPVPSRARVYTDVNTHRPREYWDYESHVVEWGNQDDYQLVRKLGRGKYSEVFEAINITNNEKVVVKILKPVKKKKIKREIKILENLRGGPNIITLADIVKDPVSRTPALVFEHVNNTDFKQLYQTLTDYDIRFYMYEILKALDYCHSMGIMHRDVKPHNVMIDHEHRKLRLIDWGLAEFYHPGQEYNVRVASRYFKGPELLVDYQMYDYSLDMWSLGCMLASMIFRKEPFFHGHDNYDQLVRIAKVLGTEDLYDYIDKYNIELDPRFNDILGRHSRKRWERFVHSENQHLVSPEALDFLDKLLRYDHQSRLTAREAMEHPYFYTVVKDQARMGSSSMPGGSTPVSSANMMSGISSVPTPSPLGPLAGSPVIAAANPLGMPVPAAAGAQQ

[8] = tested on: Mast/stem cell growth factor receptor Kit (Homo sapiens), P10721 [V560G]; assay: Inhibition of recombinant human cKit V560G mutant (544 to end residues) at 1 uM using GGMEDIYFEFMGGKKK as substrate after 40 mins in presence of [gamma-33P]ATP by scintillation counting method
Sequence of Mast/stem cell growth factor receptor Kit (Homo sapiens), P10721 [V560G] (P10721 whole entry V560G): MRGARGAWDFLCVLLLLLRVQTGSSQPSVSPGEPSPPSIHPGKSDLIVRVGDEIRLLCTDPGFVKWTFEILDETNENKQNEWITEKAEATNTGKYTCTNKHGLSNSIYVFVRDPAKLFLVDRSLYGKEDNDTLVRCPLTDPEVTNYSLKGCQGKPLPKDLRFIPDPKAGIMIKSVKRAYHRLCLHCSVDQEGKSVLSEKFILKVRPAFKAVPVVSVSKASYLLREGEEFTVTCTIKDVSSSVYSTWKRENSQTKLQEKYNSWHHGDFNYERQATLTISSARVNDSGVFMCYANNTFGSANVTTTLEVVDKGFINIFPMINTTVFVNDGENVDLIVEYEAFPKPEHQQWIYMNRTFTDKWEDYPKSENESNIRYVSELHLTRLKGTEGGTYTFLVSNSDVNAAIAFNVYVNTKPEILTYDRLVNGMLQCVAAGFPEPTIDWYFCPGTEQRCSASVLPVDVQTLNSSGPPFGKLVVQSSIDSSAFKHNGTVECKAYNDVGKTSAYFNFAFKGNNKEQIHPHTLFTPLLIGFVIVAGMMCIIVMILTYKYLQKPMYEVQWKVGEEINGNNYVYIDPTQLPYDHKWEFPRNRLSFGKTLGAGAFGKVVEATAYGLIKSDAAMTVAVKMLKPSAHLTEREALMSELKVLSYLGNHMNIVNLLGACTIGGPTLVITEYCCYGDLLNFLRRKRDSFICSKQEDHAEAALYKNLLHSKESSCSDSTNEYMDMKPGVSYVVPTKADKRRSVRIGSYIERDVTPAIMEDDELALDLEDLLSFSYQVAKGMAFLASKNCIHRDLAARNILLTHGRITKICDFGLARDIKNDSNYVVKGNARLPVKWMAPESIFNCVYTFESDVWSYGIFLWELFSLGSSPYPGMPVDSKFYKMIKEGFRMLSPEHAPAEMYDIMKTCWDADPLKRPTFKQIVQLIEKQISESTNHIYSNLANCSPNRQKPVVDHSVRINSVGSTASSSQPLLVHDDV

[9] = biological target: Dual specificity protein kinase CLK4 (Homo sapiens) (UniProt Q9HAZ1); assay: Inhibition of recombinant human CLK4 (128 to end residues) at 1 uM using YRRAAVPPSPSLSRHSSPHQS(p)EDEEE as substrate after 40 mins in presence of [gamma-33P]ATP by scintillation counting method
[10] = biological target: Vascular endothelial growth factor receptor 3 (Homo sapiens) (UniProt P35916); assay: Inhibition of recombinant human Flt4 (800 to end residues) at 1 uM using GGEEEEYFELVKKKK as substrate after 40 mins in presence of [gamma-33P]ATP by scintillation counting method
[11] = biological target: Serine/threonine-protein kinase STK11 (Homo sapiens) (UniProt Q15831); assay: Inhibition of recombinant full-length human LKB1 at 1 uM using LSNLYHQGKFLQTFCGSPLYRRR as substrate after 40 mins in presence of [gamma-33P]ATP by scintillation counting method
[12] = biological target: MAP kinase-activated protein kinase 3 (Homo sapiens) (UniProt Q16644); assay: Inhibition of recombinant human MAPKAPK3 (2 to end residues) at 1 uM using KKLNRTLSVA as substrate after 40 mins in presence of [gamma-33P]ATP by scintillation counting method
Sequence of MAP kinase-activated protein kinase 3 (Homo sapiens) (Q16644 whole entry, looked up): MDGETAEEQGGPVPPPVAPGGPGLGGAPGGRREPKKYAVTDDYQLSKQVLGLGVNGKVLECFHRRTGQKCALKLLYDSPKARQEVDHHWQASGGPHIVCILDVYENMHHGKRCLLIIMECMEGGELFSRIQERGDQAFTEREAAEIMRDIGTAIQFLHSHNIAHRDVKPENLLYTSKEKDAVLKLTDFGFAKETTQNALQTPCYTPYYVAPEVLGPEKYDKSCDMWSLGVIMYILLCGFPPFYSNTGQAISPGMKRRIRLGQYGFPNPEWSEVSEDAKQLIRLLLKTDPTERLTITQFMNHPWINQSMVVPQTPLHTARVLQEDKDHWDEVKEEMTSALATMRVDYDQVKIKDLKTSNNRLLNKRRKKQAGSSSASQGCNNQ

[13] = biological target: MAP/microtubule affinity-regulating kinase 4 (Homo sapiens) (UniProt Q96L34); assay: Inhibition of recombinant full-length human MARK4 at 1 uM using KKKVSRSGLYRSPSMPENLNRPR as substrate after 40 mins in presence of [gamma-33P]ATP by scintillation counting method
[14] = biological target: Myosin light chain kinase, smooth muscle (Homo sapiens) (UniProt Q15746); assay: Inhibition of recombinant human MLCK (1425 to 1771 residues) at 1 uM using […] after 40 mins in presence of [gamma-33P]ATP by scintillation counting method
Sequence of Myosin light chain kinase, smooth muscle (Homo sapiens) (Q15746 whole entry, the tested form may be a part): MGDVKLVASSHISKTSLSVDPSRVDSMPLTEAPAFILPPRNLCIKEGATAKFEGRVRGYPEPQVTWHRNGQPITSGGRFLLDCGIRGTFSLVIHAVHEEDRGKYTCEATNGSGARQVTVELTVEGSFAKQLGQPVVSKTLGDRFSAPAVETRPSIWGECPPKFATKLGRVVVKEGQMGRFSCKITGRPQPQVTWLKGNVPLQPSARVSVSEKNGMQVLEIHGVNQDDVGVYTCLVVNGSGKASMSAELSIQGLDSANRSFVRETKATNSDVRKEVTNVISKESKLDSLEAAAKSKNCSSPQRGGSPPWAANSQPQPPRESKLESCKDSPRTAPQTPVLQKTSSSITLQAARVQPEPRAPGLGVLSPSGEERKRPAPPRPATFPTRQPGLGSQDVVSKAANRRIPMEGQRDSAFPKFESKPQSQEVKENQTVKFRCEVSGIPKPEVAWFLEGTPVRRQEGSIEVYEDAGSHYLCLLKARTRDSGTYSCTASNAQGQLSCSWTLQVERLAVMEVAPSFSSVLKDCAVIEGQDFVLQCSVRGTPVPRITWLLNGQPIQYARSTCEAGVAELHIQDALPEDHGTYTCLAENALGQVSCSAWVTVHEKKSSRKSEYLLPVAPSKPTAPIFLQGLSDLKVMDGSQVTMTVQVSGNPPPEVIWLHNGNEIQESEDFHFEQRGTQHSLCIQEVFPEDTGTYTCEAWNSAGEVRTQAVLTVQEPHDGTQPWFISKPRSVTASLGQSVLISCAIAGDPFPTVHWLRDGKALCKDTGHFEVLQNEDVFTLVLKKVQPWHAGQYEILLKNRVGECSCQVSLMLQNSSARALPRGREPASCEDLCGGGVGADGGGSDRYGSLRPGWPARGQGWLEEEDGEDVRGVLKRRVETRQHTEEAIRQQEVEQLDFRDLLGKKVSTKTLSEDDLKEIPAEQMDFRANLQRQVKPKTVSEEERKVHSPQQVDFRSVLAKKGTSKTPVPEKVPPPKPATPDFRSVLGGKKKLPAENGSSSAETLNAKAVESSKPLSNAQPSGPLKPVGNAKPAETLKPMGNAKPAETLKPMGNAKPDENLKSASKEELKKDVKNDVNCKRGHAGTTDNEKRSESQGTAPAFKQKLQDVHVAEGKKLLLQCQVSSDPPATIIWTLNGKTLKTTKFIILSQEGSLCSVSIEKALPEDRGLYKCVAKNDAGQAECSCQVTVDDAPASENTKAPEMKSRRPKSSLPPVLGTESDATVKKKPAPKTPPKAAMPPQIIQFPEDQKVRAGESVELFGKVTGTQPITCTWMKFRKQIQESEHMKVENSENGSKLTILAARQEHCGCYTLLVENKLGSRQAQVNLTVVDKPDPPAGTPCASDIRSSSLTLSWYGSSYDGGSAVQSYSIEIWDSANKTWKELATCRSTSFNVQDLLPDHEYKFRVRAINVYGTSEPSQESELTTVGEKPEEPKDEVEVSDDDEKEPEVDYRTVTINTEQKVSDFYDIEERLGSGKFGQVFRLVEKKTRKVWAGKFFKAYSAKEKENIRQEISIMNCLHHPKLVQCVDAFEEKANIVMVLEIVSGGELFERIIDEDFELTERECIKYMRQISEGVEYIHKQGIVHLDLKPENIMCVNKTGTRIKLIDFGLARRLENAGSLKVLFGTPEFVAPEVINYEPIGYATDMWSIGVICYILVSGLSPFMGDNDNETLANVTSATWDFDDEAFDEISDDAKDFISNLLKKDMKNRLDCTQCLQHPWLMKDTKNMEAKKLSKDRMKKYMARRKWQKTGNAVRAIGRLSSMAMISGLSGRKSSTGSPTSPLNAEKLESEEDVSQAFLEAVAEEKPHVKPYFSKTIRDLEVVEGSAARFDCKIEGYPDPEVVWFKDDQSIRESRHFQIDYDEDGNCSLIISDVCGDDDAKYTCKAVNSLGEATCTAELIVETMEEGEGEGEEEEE

[15] = biological target: Serine/threonine-protein kinase Nek6 (Homo sapiens) (UniProt Q9HC98); assay: Inhibition of recombinant human NEK6 (2 to end residues) at 1 uM using FLAKSFGSPNRAYKK as substrate after 40 mins in presence of [gamma-33P]ATP by scintillation counting method
[16] = biological target: Serine/threonine-protein kinase NIM1 (Homo sapiens) (UniProt Q8IY84); assay: Inhibition of recombinant full-length human NIM1 at 1 uM using KKKVSRSGLYRSPSMPENLNRPR as substrate after 40 mins in presence of [gamma-33P]ATP by scintillation counting method
Sequence of Serine/threonine-protein kinase NIM1 (Homo sapiens) (Q8IY84 whole entry): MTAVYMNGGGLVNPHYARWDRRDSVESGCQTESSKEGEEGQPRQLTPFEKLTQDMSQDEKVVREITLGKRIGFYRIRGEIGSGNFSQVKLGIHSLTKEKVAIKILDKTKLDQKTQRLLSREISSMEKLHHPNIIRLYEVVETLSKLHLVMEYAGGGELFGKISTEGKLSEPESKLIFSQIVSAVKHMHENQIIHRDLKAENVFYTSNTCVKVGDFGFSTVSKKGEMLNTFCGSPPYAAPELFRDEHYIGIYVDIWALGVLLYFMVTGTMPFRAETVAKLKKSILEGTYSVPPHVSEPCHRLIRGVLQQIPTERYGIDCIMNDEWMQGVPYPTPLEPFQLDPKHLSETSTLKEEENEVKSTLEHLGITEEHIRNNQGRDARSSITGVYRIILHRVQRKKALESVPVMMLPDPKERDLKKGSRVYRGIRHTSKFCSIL

[17] = biological target: Serine/threonine-protein kinase pim-2 (Homo sapiens) (UniProt Q9P1W9); assay: Inhibition of recombinant human PIM2 (2 to end residues) at 1 uM using RSRHSSYPAGT as substrate after 40 mins in presence of [gamma-33P]ATP by scintillation counting method
[18] = biological target: Serine/threonine-protein kinase PLK1 (Homo sapiens) (UniProt P53350); assay: Inhibition of recombinant full-length human Plk1 at 1 uM using casein as substrate after 40 mins in presence of [gamma-33P]ATP by scintillation counting method
[19] = biological target: Serine/threonine-protein kinase SIK1 (Homo sapiens) (UniProt P57059); assay: Inhibition of recombinant human SIK (1 to 281 residues) at 1 uM using AMARAASAAALARRR as substrate after 40 mins in presence of [gamma-33P]ATP by scintillation counting method
[20] = biological target: Serine/threonine-protein kinase tousled-like 2 (Homo sapiens) (UniProt Q86UE8); assay: Inhibition of recombinant human TLK2 (387 to end residues) at 1 uM using casein as substrate after 40 mins in presence of [gamma-33P]ATP by scintillation counting method
[21] = biological target: Dual specificity protein kinase TTK (Homo sapiens) (UniProt P33981); assay: Inhibition of recombinant full-length human TTK at 1 uM using myelin basic protein as substrate after 40 mins in presence of [gamma-33P]ATP by scintillation counting method
Sequence of Dual specificity protein kinase TTK (Homo sapiens) (P33981 whole entry, the tested form may be a part): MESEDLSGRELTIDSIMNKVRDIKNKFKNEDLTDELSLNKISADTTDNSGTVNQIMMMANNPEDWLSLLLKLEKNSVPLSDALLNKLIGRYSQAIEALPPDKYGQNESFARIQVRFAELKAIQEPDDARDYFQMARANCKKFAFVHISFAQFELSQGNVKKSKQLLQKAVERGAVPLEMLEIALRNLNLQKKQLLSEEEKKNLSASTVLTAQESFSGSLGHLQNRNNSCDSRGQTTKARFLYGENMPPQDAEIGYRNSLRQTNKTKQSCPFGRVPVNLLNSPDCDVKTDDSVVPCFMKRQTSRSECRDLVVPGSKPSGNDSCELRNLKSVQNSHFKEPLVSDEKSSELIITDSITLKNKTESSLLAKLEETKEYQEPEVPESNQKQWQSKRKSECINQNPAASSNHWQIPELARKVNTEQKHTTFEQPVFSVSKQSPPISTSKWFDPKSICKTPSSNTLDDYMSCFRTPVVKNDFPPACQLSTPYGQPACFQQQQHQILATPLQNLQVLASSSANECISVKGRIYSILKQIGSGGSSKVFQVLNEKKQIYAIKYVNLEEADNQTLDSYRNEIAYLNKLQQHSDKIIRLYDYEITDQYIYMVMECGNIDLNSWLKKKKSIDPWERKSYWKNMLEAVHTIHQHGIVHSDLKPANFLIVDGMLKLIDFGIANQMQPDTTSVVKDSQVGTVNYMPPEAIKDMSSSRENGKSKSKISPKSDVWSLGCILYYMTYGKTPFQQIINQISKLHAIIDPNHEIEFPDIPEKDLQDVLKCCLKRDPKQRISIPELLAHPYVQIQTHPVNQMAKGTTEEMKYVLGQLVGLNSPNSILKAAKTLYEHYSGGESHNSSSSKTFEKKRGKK

[22] = biological target: Serine/threonine-protein kinase VRK2 (Homo sapiens) (UniProt Q86Y07); assay: Inhibition of recombinant human VRK2 (1 to 336 residues) at 1 uM using casein as substrate after 40 mins in presence of [gamma-33P]ATP by scintillation counting method
[23] = biological target: Wee1-like protein kinase 2 (Homo sapiens) (UniProt P0C1S8); assay: Inhibition of recombinant full-length human Wee1B at 1 uM using LSNLYHQGKFLQTFCGSPLYRRR as substrate after 120 mins in presence of [gamma-33P]ATP by scintillation counting method

SMILES: CS(=O)(=O)c1ccc(-n2nc(-c3cnc4[nH]ccc4c3)c3c(N)ncnc32)cc1
- IC50 [1]: 66 nM
- inhibition [2]: 96%
- inhibition [3]: 12%
- inhibition [4]: 7%
- inhibition [5]: 3%
- inhibition [6]: -2%
- inhibition [7]: 19%
- inhibition [8]: 76%
- inhibition [9]: 11%
- inhibition [10]: 91%
- inhibition [11]: -5%
- inhibition [12]: -1%
- inhibition [13]: -3%
- inhibition [14]: 4%
- inhibition [15]: -4%
- inhibition [16]: -5%
- inhibition [17]: -7%
- inhibition [18]: -1%
- inhibition [19]: 35%
- inhibition [20]: 0%
- inhibition [21]: -6%
- inhibition [22]: 0%
- inhibition [23]: -3%
